Active and inactive are the calls of the source. No cut-off for these calls is given here.
What was measured:
Format in all cases: tissue-based
Details in all cases: Muscle tissue
Oryctolagus cuniculus [1] = species on record: Oryctolagus cuniculus; assay: Inhibition of caspase-like activity of rabbit muscle 26S proteasome after 30 mins
Oryctolagus cuniculus [2] = species on record: Oryctolagus cuniculus; assay: Inhibition of caspase-like activity of rabbit muscle 26S proteasome at 10 to 20 uM after 30 mins
Oryctolagus cuniculus [3] = species on record: Oryctolagus cuniculus; assay: Inhibition of chymotrypsin-like activity of rabbit muscle 26S proteasome upto 500 uM after 30 mins
Oryctolagus cuniculus [4] = species on record: Oryctolagus cuniculus; assay: Inhibition of trypsin-like activity of rabbit muscle 26S proteasome upto 500 uM after 30 mins
Oryctolagus cuniculus [5] = species on record: Oryctolagus cuniculus; assay: Inhibition of caspase-like activity of rabbit muscle 26S proteasome at 50 to 100 uM after 30 mins
Oryctolagus cuniculus [6] = species on record: Oryctolagus cuniculus; assay: Inhibition of trypsin-like activity of rabbit muscle 26S proteasome at 50 to 100 uM after 30 mins

| SMILES | Activity (Oryctolagus cuniculus [1]) | inhibition (Oryctolagus cuniculus [2]) [%] | Activity (Oryctolagus cuniculus [3]) | Activity (Oryctolagus cuniculus [4]) | Activity (Oryctolagus cuniculus [5]) | Activity (Oryctolagus cuniculus [6]) |
| --- | --- | --- | --- | --- | --- | --- |
| CCCC[C@H](NC(=O)[C@@H]1CCCN1C(=O)[C@H](C)NC(C)=O)C(=O)N[C@H](/C=C/S(=O)(=O)c1ccc(O)cc1)CC(C)C | Active | > 90 | inactive | inactive | Active | Active |
| CCCC[C@H](NC(=O)[C@@H]1CCCN1C(=O)[C@H](C)NC(=O)CN=[N+]=[N-])C(=O)N[C@H](/C=C/S(=O)(=O)c1ccc(O)cc1)CC(C)C | Active | – | – | – | – | – |
